In patent publication US20110002987A1, “Nicorandil Carriers with Enhanced Stability” (RIVOPHARM SA, priority 2008, published 2011):

Assay: Stability tests of nicorandil tablets in alu/alu blister with desiccant system
Assay type: physicochemical
Conditions: stored in combination with molecular sieve instead of silica gel desiccant, 6 months
Procedure: Two batches of Nicorandil tablets, 10 mg (batch 043/07) and 20 mg (batch 044/07) respectively, were prepared and packed according to the invention, in alu/alu blister together with a desiccant system.
Silica gel and molecular sieves were compared as desiccant systems and among molecular sieves, systems with different capacity of water absorption were considered.
043/07A: silica gel system
043/07B: 1 lozenge of desiccant plastic composition (Molecular Sieve 4A as provided by CSP technologies), containing molecular sieve 4 Å, a base polymer of polypropylene and an elastomer (moisture absorbed in mg: about 64)
043/07C: 5 lozenges of desiccant plastic composition (Molecular Sieve 4A as provided by CSP technologies), containing molecular sieve 4 Å, a base polymer of polypropylene and an elastomer (moisture absorbed in mg: about 320)
The blisters were placed on stability at the following conditions for 6 months:
25±2° C./60±5% relative humidity (RH)
Nicorandil is particularly sensitive to humidity. Two impurities (named rrt0.14 and rrt0.25) are generated when the product is exposed to moisture and therefore were monitored during stability.

**Q.** Which stability of nicorandil does the source give for `O=C(NCCO[N+](=O)[O-])c1cccnc1` [Nicorandil] here?
**A.** Its stability of nicorandil is “more stable”.

**Q.** And the stability of nicorandil (listed as nicorandil)?
**A.** Its stability of nicorandil is “improved stability”.
